Assay results from patent publication US9314046B2, “Flavor-improving method” (TAKASAGO INTERNATIONAL CORPORATION, priority 2011, dated 2016).

Test: Evaluation of flavor-improving effects by addition of γ-aminobutyric acid and naringenin (sensory, 3 evaluators)
Format: in vivo
Set-up: key to Evaluation (grade): VP (very poor): worse than base; P (poor): difference from base not acknowledged, insufficient effects; G (good): different from base, favorable flavor; E (excellent): significantly different from base, very favorable flavor
Method: (1) Evaluation of Flavor-Improving Effects by Addition of γ-Aminobutyric Acid and Naringenin
To a base of a 0.05% aqueous solution of Rebaudio J-100, γ-aminobutyric acid (product name: 4-amino-n-butyric acid, produced by Nacalai Tesque, Inc.) and naringenin (product name: Naringenin, produced by LKT Laboratories, Inc.) were individually added in the amounts as described in the following table, and the flavor-improving effects thereof were evaluated.

[1] = naringenin alone 0.0010 ppb in base
[2] = naringenin alone 0.0100 ppb in base
[3] = naringenin alone 460.0000 ppb in base

SMILES: O=C1C[C@@H](c2ccc(O)cc2)Oc2cc(O)cc(O)c21 [naringenin]
- Evaluation (comment in words) [1]: Not different from base
- Evaluation (grade) [1]: P
- Evaluation (comment in words) [2]: Not different from base
- Evaluation (grade) [2]: P
- Evaluation (grade) (naringenin alone 0.1000 ppb in base): P
- Evaluation (grade) (naringenin alone 1.0000 ppb in base): P
- Evaluation (grade) (naringenin alone 10.0000 ppb in base): P
- Evaluation (comment in words) [3]: Bitterness left in mouth
- Evaluation (grade) [3]: P
- Evaluation (grade) (naringenin alone 1000.0000 ppb in base): P
- Evaluation (grade) (naringenin alone 10000.0000 ppb in base): P

SMILES: NCCCC(=O)O [GABA, γ-aminobutyric acid]
- Evaluation (comment in words) (GABA alone 0.0100 ppb in base): Not different from base
- Evaluation (grade) (GABA alone 0.0100 ppb in base): P
- Evaluation (comment in words) (GABA alone 0.1000 ppb in base): Not different from base
- Evaluation (grade) (GABA alone 0.1000 ppb in base): P
- Evaluation (comment in words) (GABA alone 1.0000 ppb in base): Reduced total taste
- Evaluation (grade) (GABA alone 1.0000 ppb in base): P
- Evaluation (grade) (GABA alone 10.0000 ppb in base): P
- Evaluation (grade) (GABA alone 100.0000 ppb in base): P
- Evaluation (grade) (GABA alone 500.0000 ppb in base): P
- Evaluation (grade) (GABA alone 1000.0000 ppb in base): VP
- Evaluation (grade) (GABA alone 10000.0000 ppb in base): VP
